The values below come from PMC8184619 (Molecular immunology, 2021).

The structures appear in SMILES notation.

What all share (format): cell-based
For assay [1], the system named is T4H2 TCR-transduced CD8+ Jurkat T cells.
Assay [2] deals with SILv44 TCR-transduced CD8+ Jurkat T cells.
Assay [3] concerns R6C12 TCR-transduced CD8+ Jurkat T cells.

Regarding `CC[C@H](C)[C@H](N)C(=O)N[C@@H](CC(C)C)C(=O)N[C@@H](CC(=O)O)C(=O)N[C@@H](CCC(N)=O)C(=O)N[C@H](C(=O)N1CCC[C@H]1C(=O)N[C@@H](Cc1ccccc1)C(=O)N[C@@H](CO)C(=O)N[C@H](C(=O)O)C(C)C)C(C)C` [T2Leu], the concentration giving a half-maximal response (EC50) in assay [1] came to 0.3 ± 0.1 µM; in assay [2] it was 1.4 ± 0.3 µM; in assay [3], 11 ± 3 µM.

What is called EC50 is the concentration at which the effect is half-maximal.
